Reference: ChEMBL document CHEMBL4340516, “Synthesis and antitumor activity of novel steroidal imidazolium salt derivatives” (Eur J Med Chem, 2019)

Legend:
Type in all cases: functional, cell-based
MCF7 = assay: Antiproliferative activity against human MCF7 cells assessed as reduction in cell viability incubated for 48 hrs by MTS assay; conditions: MCF7, 48 h
A549 = assay: Antiproliferative activity against human A549 cells assessed as reduction in cell viability incubated for 48 hrs by MTS assay; conditions: A549, 48 h
SMMC-7721 = assay: Antiproliferative activity against human SMMC7721 cells assessed as reduction in cell viability incubated for 48 hrs by MTS assay; conditions: SMMC-7721, 48 h
HL-60 = assay: Antiproliferative activity against human HL60 cells assessed as reduction in cell viability incubated for 48 hrs by MTS assay; conditions: HL-60, 48 h
SW480 = assay: Antiproliferative activity against human SW480 cells assessed as reduction in cell viability incubated for 48 hrs by MTS assay; conditions: SW480, 48 h

| SMILES | IC50 (MCF7) [µM] | IC50 (A549) [µM] | IC50 (SMMC-7721) [µM] | IC50 (HL-60) [µM] | IC50 (SW480) [µM] |
| --- | --- | --- | --- | --- | --- |
| C[C@]12CC[C@H](O)CC1=CC[C@@H]1[C@@H]2CC[C@]2(C)C(=O)CC[C@@H]12 [PRASTERONE] | > 20 | > 20 | > 20 | > 20 | > 20 |
| C[C@]12CC[C@H]3[C@@H](CC=C4C[C@@H](O)CC[C@@]43C)[C@@H]1CC[C@@H]2n1cc[n+](CC(=O)c2ccc3ccccc3c2)c1 | 4.38 | 9.69 | 3.5 | 2 | 5.59 |
| COc1ccc(C(=O)C[n+]2cn([C@@H]3CC[C@@]4(C)C(=CC[C@H]5[C@@H]6C[C@@H]7O[C@]8(CC[C@@H](C)CO8)[C@@H](C)[C@@H]7[C@@]6(C)CC[C@@H]54)C3)c3ccccc32)cc1 | 2.11 | 2.45 | 1.45 | 1.22 | 2.55 |
| CC(C)CCC[C@@H](C)[C@H]1CC[C@H]2[C@@H]3CC=C4C[C@H](n5cc[n+](CC(=O)c6ccccc6)c5)CC[C@]4(C)[C@H]3CC[C@]12C | 8.41 | 8.42 | 1.49 | 6.85 | 9.03 |
| C[C@@H]1CC[C@@]2(OC1)O[C@H]1C[C@H]3[C@@H]4CC=C5C[C@H](n6ccnc6)CC[C@]5(C)[C@H]4CC[C@]3(C)[C@H]1[C@@H]2C | > 20 | > 20 | > 20 | > 20 | > 20 |
| C[C@]12CC[C@H]3[C@@H](CC=C4C[C@@H](O)CC[C@@]43C)[C@@H]1CC[C@@H]2n1cc[n+](Cc2ccccc2Br)c1 | 9.61 | > 20 | 7.63 | 6.3 | > 20 |
| C[C@@H]1CC[C@@]2(OC1)O[C@H]1C[C@H]3[C@@H]4C[C@H](n5cc[n+](Cc6ccc7ccccc7c6)c5)[C@]56C[C@H]5CC[C@]6(C)[C@H]4CC[C@]3(C)[C@H]1[C@@H]2C | 1.95 | 4.92 | 2.45 | 1.22 | 4.03 |
| CC(C)CCC[C@@H](C)[C@H]1CC[C@H]2[C@@H]3CC=C4C[C@@H](n5ccnc5)CC[C@]4(C)[C@H]3CC[C@]12C | > 20 | > 20 | > 20 | > 20 | > 20 |
| C[C@@H]1CC[C@@]2(OC1)O[C@H]1C[C@H]3[C@@H]4CC=C5C[C@H](n6cc[n+](CC(=O)c7cccc(Br)c7)c6)CC[C@]5(C)[C@H]4CC[C@]3(C)[C@H]1[C@@H]2C | 1.43 | 1.55 | 1.71 | 1.25 | 1.65 |
| C[C@@H]1CC[C@@]2(OC1)O[C@H]1C[C@H]3[C@@H]4CC=C5C[C@H](n6cc[n+](CC(=O)c7ccc8ccccc8c7)c6)CC[C@]5(C)[C@H]4CC[C@]3(C)[C@H]1[C@@H]2C | 2.27 | 3.34 | 1.89 | 0.96 | 3.62 |
| COc1ccc(C(=O)C[n+]2ccn([C@H]3CC[C@H]4[C@@H]5CC=C6C[C@@H](O)CC[C@]6(C)[C@H]5CC[C@]34C)c2)cc1 | > 20 | > 20 | > 20 | > 20 | > 20 |
| CC(C)CCC[C@@H](C)[C@H]1CC[C@H]2[C@@H]3CC=C4C[C@H](n5cc[n+](CC(=O)c6cccc(Br)c6)c5)CC[C@]4(C)[C@H]3CC[C@]12C | 8.51 | 7.22 | 1.7 | 9.91 | 6.33 |
| Cc1cc2c(cc1C)[n+](Cc1ccc3ccccc3c1)cn2[C@@H]1CC[C@@]2(C)C(=CC[C@H]3[C@@H]4C[C@@H]5O[C@]6(CC[C@@H](C)CO6)[C@@H](C)[C@@H]5[C@@]4(C)CC[C@@H]32)C1 | 1.9 | 5.12 | 0.59 | 0.42 | 1.6 |
| Cc1cc2ncn([C@@H]3CC[C@@]4(C)C(=CC[C@H]5[C@@H]6CC[C@H]([C@H](C)CCCC(C)C)[C@@]6(C)CC[C@@H]54)C3)c2cc1C | > 20 | > 20 | > 20 | 0.18 | > 20 |
| C[C@@H]1CC[C@@]2(OC1)O[C@H]1C[C@H]3[C@@H]4CC=C5C[C@@H](n6ccnc6)CC[C@]5(C)[C@H]4CC[C@]3(C)[C@H]1[C@@H]2C | 14.5 | 9.92 | 9.74 | 9.51 | > 20 |
